Assay results taken from US4532327A, “Sesbanimide and the use thereof in treating leukemic tumors” (priority 1983, dated 1985).
Where two headings read alike, the source gives them in different places.

Legend:
KB Cell Culture = type: cell-based; settings: Example 1 fractions, active if ED50 ≤30 μg./ml.
Method: Chemotherapeutic Activity. The chemotherapeutic activities of the fractions obtained in the isolation procedure of Example 1 were determined in part by a KB Cell Culture Screen in accordance with the National Cancer Institute Protocol 1.600 [Geran et al., Cancer Chemother, Rep., Part 3, 3(2): 17 (1972)]. […] Such a dose is referred to as ED50 and activity is indicated for ED50 levels of ≤30 μg./ml.

[1] = tested on: lymphocytic leukemia cells of the strain P388 (PS tumors); experiment: lymphocytic leukemia P388 (PS tumors) implanted in mice (NCI Protocol 1.200); type: in vivo, mice (CDF1); settings: active if ≥125%
Method: As previously mentioned, the fractionation of Example 1 was also guided by assaying the effectiveness of the various fractions against lymphocytic leukemia cells of the strain P388 (PS tumors) implanted in mice. These assays were made according to the National Cancer Institute Protocol 1.200 described in Geran et al., supra, page 9. Starting 24 hr. after the tumor implantation, previously determined dosages of each fraction were injected intraperitoneally once a day for 9 days. Survival time of treated leukemic mice is compared to that of untreated leukemic mice (T/C×100). A T/C value of 100% indicated no activity. A T/C value greater than 100% means that the treated mice are surviving longer than the control mice. A fraction giving a T/C value greater than 125% is indicative of activity as defined by the NCI Protocols, above. Activities of the fractions comprising the pure or substantially pure sesbanimide isolates as reported in Table II establish the utility of the compounds as antileukemic agents.
(§1) ^1 All hosts were type CDF1 mice. Six replicate mice were tested
(§2) ^2 The doses are reported as micrograms per kilogram of host body
(§3) weight per injection. The injection vehicle in all cases was water.
(§4) ^3 T/C = mean survival time of test animals/mean survival time of
(§5) control animals; 125% or above considered active.

[2] = tested on: lymphocytic leukemia P388 (PS); settings: attributed in U.S. Pat. No. 4,200,639 (disclaimed); cited from earlier work
KB cell = settings: attributed in U.S. Pat. No. 4,200,639 (disclaimed); cited from earlier work
lymphoid leukemia L1210 = lymphoid leukemia L1210 in mice (NCI Protocol 1.100); type: in vivo; settings: female CDF1 mice, active if ≥125%
Method: This assay was conducted in accordance with the NCI Protocol 1.100 described in Geran et al., supra, page 7. Starting 24 hr. after the tumor implantation, predetermined doses of the compound were injected intraperitoneally once a day for 9 days.
as §1, §2, §3, §4, §5

Question: What does the source list for `C=C1COC(O)(C2OCOC(C3CC(=O)NC(=O)C3)C2O)C1C` (stereo not drawn) [Sesbanimide B]?
Answer: ED50 (dose that inhibits growth to 50% of control growth by 3 days after drug addition) (KB Cell Culture; listed as K442, 4320 min): 0.068 µg/mL; T/C ([1]; male CDF1 mice, 1.87 μg./kg./inj. i.p. once a day for 9 days): 157%; T/C ([1]; male CDF1 mice, 3.75 μg./kg./inj. i.p. once a day for 9 days): 161%; T/C ([1]; male CDF1 mice, 7.50 μg./kg./inj. i.p. once a day for 9 days): toxic

Question: What does the source list for `O=C1NC(=O)[C@@]2(CC[C@@H](O)C2)c2ccncc21` [sesbanine]?
Answer: apparent activity in the PS tumor system [2]: result of a heretofore unidentified impurity; apparent activity in the KB cell screen (KB cell): result of a heretofore unidentified impurity

Question: With `C=C1COC(O)(C2OCOC(C3CC(=O)NC(=O)C3)C2O)C1C` (stereo not drawn) [Sesbanimide A] as the molecule, how does the “ED50 (dose that inhibits growth to 50% of control growth by 3 days after drug addition)” value (KB Cell Culture; listed as K443, 4320 min) read?
Answer: 0.0077 µg/mL

Question: What about the T/C ([1]; female CDF1 mice, 2.00 μg./kg./inj. i.p. once a day for 9 days) of the same molecule?
Answer: 119%

Question: And the T/C ([1]; female CDF1 mice, 4.00 μg./kg./inj. i.p. once a day for 9 days)?
Answer: 119%

Question: What about the T/C ([1]; female CDF1 mice, 8.00 μg./kg./inj. i.p. once a day for 9 days) of the same molecule?
Answer: 140%

Question: What about the T/C ([1]; female CDF1 mice, 16.00 μg./kg./inj. i.p. once a day for 9 days) of the same molecule?
Answer: 149%

Question: And the T/C ([1]; female CDF1 mice, 32.00 μg./kg./inj. i.p. once a day for 9 days)?
Answer: 181%

Question: What about the T/C (lymphoid leukemia L1210; 16.00 μg./kg./inj. i.p. once a day for 9 days) of the same molecule?
Answer: 116%

Question: And the T/C (lymphoid leukemia L1210; 32.00 μg./kg./inj. i.p. once a day for 9 days)?
Answer: 135%

Question: And the T/C (lymphoid leukemia L1210; 64.00 μg./kg./inj. i.p. once a day for 9 days)?
Answer: toxic
